Results from paper PMC6272605, “Development and Validation of a Docking-Based Virtual Screening Platform for the Identification of New Lactate Dehydrogenase Inhibitors” (Molecules, 2015).

Tested on: LDH
Assay: not given
Parameters: method as in earlier work
Conditions: Table S1, active compounds included in the enriched dataset; LDH inhibitors binding the open conformation in the presence of NADH; cited from earlier work

Structure (SMILES)	IC50
Cc1nc2ccc(NC(=O)CCNC(=O)CCCc3ccc(CC(C(=O)O)C(=O)O)cc3)cc2s1 [Compound 2]	12.1 µM
C[C@@H](Nc1nc(-c2cc(C(=O)O)ccc2Cl)cnc1N)c1ccccc1 [Compound 3]	0.48 µM
Nc1ccc(C(=O)O)cc1 [Compound 4]	0.75 µM
COC(=O)c1ccc(N)cc1 [Compound 5]	0.71 µM
COC(=O)c1ccc(NCCO)cc1 [Compound 6]	0.65 µM
COC(=O)c1ccc(NS(=O)(=O)c2ccc(C)cc2)cc1 [Compound 7]	7.4 µM
NCC(O)c1ccccc1 (centres unmarked) [Compound 8]	4 µM
O=C1NCC(c2ccccc2)O1 (centres unmarked) [Compound 9]	14 µM
CC(C)(C)OC(=O)CN1CC(c2ccccc2)OC1=O (centres unmarked) [Compound 10]	10 µM

Target: T1, purified human lactate dehydrogenase isoform 5 (hLDH5) (Homo sapiens, UniProt P00338)
T1 construct: purchased Lee Biosolution, Inc., St. Louis, MO, USA
Assay: hLDH5 inhibition assay (pyruvate→lactate, NADH fluorescence)
Type: biochemical
Conditions: 200 μM pyruvate, 40 μM NADH, phosphate buffer pH 7.4, 15 min incubation
Experimental: LDH assays: The LDH inhibition properties of the selected compounds were evaluated against purified human lactate dehydrogenase isoform 5 (Lee Biosolution, Inc., St. Louis, MO, USA). The “forward” direction (pyruvate→lactate) of the lactate dehydrogenase reaction was conducted, and the kinetic parameters were measured by fluorescence (emission wavelength at 460 nm, excitation wavelength at 340 nm) to monitor the amount of consumed NADH. Assays were carried out in wells containing 200 μL of a reagent solution dissolved in 100 mM phosphate buffer (pH = 7.4). For the IC50 calculations of the compounds, seven different concentrations (in duplicate for each concentration) of the isolated compounds were used to produce the concentration-response curve. All of the compounds were tested in the presence of 200 μM pyruvate and 40 μM NADH. Any background fluorescence likelihood of the tested samples, or NADH fluorescence quenching, was subtracted. In addition to the sample test wells, maximum and minimum controls were also included in each plate. After 15 min of incubation, the final measurements were carried out by using a Victor X3 Microplates Reader (PerkinElmer®). IC50 values were produced using GraphPad Prism software.

IC50	Structure (SMILES)
51.7 ± 4.2 µM	O=C(O)c1cc2c(C(F)(F)F)cc(-c3ccccc3)cc2n1O [NHI-1]
> 500 µM	O=C(O)c1ccc(NCCO)cc1 [VS1, 4-((2-Hydroxyethyl)amino)benzoic acid]
> 500 µM	Cc1ccc(S(=O)(=O)Nc2ccc(C(=O)O)cc2)cc1 [VS2, 4-(4-Methylphenylsulfonamido)benzoic acid]
> 500 µM	O=C(O)CN1CC(c2ccccc2)OC1=O (centres unmarked) [VS3, 2-(2-Oxo-5-phenyloxazolidin-3-yl)acetic acid]
> 500 µM	O=C(O)CCCC(=O)Nc1ccccc1 [VS4]
> 500 µM	Cc1ccc(C)c(C(O)C(=O)O)c1 (centres unmarked) [VS5]
246 ± 10.8 µM	CC(C)C(NC(=O)OCc1ccccc1)C(=O)Nc1ccccc1 (centres unmarked) [VS6]
> 500 µM	O=C(O)CCC(=O)c1ccc(F)cc1 [VS7]
269 ± 58.1 µM	COC(=O)C(NC(=O)c1cc([N+](=O)[O-])cc([N+](=O)[O-])c1)c1ccccc1 (centres unmarked) [VS8]
> 500 µM	Cc1ccc(C(N)C(=O)O)cc1 (centres unmarked) [VS10]
91.7 ± 10.7 µM	O=c1cc2oc(O)c3cc(O)c(O)c(O)c3c-2oc1=O [galloflavin]
